# Laboratory results: patent US20250296953A1, “3,4-THIAZOLO-STEROIDS AND METHODS OF MAKING AND USING THE SAME” (Arkansas State University - Jonesboro, priority 2018, published 2025)
# Like-named read-outs stand apart in the source and are kept apart here.
# Experiments:
# [1] = tested on: HCT-15 (Colon Cancer); test: NCI 60 one dose screen; type: cell-based, human
# [2] = tested on: gliosarcoma (SF-539); test: NCI 60 five dose screen
# [3] = tested on: SK-MEL-28; test: Melanoma cytotoxicity assay (resazurin); type: cell-based; conditions: SK-MEL-28 melanoma cells, 24 hours with compound, resazurin; concentration not given
# Procedure, shortened: (§1)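 ~4000 cells/well, 24 h attach, 37° C/5% CO2; cpd triplicate, 24 h; resazurin 6 h; fluor 544/590 nm. % viability vs DMSO after media-blank subtraction; IC50 from dilution series, sigmoidal fit.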
# [4] = tested on: SK-MEL-25; test: Melanoma cytotoxicity assay (resazurin); type: cell-based; conditions: SK-MEL-25 melanoma cells, 24 hours with compound, resazurin; concentration not given
# Procedure, shortened: as §1
# [5] = tested on: SK-MEL-5; test: Melanoma cytotoxicity assay (resazurin); type: cell-based; conditions: SK-MEL-5 melanoma cells, 24 hours with compound, resazurin; concentration not given
# Procedure, shortened: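 Readout: resazurin fluorescence (ex 544, em 590 nm) after 6 h dye incubation, following 24 h compound exposure of ~4000 cells/well. Viability = background-subtracted signal over DMSO wells; IC50 by sigmoidal curve fitting.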
# [6] = tested on: 60 different human tumor cell lines; test: cells
compound,measurement,setting,value
"C[C@]12CCc3sc(NCCc4ccccc4)nc3C1=CC[C@@H]1[C@@H]2CC[C@]2(C)C(=O)CC[C@@H]12 [IIa.2, (1S,2R,13R,14S,18S)-2,18-dimethyl-7-(2-phenylethylamino)-6-thia-8-azapentacyclo [11.7.0.02,10.05,9.014,18]icosa-5(9),7,10-trien-17-one]",Growth Percent,[1],22.48%
same,GI50,"[2]; Homo sapiens, SF-539",1.69 µM
same,CC50,"[2]; Homo sapiens, SF-539, read-out: LC50",7.75 µM
same,TGI,"[2]; SF-539 (CNS Cancer), five dose",3.62E−6
same,SK-MEL-28 (% inhibition),[3],79%
same,SK-MEL-25 (% inhibition),[4],59%
same,SK-MEL-5 (% inhibition),[5],73%
same,GI50,[6]; 60 cell,3.35 µM
same,CC50,"[6]; 60 cell, read-out: LC50",> 100 µM
same,GI50,[6]; 786-0,2.82 µM
same,CC50,"[6]; 786-0, read-out: LC50",> 100 µM
same,GI50,[6]; A498,4.43 µM
same,CC50,"[6]; A498, read-out: LC50",> 100 µM
same,GI50,[6]; A549,7 µM
same,CC50,"[6]; A549, read-out: LC50",> 100 µM
same,GI50,[6]; ACHN,1.96 µM
same,CC50,"[6]; ACHN, read-out: LC50",7.19 µM
same,GI50,[6]; BT-549,2.42 µM
same,CC50,"[6]; BT-549, read-out: LC50",> 100 µM
same,GI50,[6]; CAKI-1,3.13 µM
same,CC50,"[6]; CAKI-1, read-out: LC50",> 100 µM
same,GI50,[6]; CCRF-CEM,2.63 µM
same,CC50,"[6]; CCRF-CEM, read-out: LC50",> 100 µM
same,GI50,[6]; COLO 205,3.03 µM
same,CC50,"[6]; COLO 205, read-out: LC50",> 100 µM
same,GI50,[6]; DU-145,3.64 µM
same,CC50,"[6]; DU-145, read-out: LC50",> 100 µM
same,GI50,[6]; EKVX,90.1 µM
same,CC50,"[6]; EKVX, read-out: LC50",> 100 µM
same,GI50,[6]; HCC 2998,8.19 µM
same,CC50,"[6]; HCC 2998, read-out: LC50",> 100 µM
same,GI50,[6]; HCT-15,1.57 µM
same,CC50,"[6]; HCT-15, read-out: LC50",88.7 µM
same,GI50,[6]; HCT-116,2.87 µM
same,CC50,"[6]; HCT-116, read-out: LC50",> 100 µM
same,GI50,[6]; HL-60,2.93 µM
same,CC50,"[6]; HL-60, read-out: LC50",> 100 µM
same,GI50,[6]; HOP-62,8.52 µM
same,CC50,"[6]; HOP-62, read-out: LC50",> 100 µM
same,GI50,[6]; HOP-92,2.75 µM
same,CC50,"[6]; HOP-92, read-out: LC50",> 100 µM
same,GI50,[6]; HT-29,2.21 µM
same,CC50,"[6]; HT-29, read-out: LC50",> 100 µM
same,GI50,[6]; Hs-578T,2.85 µM
same,CC50,"[6]; Hs-578T, read-out: LC50",> 100 µM
same,GI50,[6]; IGROV-1,2.6 µM
same,CC50,"[6]; IGROV-1, read-out: LC50",65.6 µM
same,GI50,[6]; K562,2.89 µM
same,CC50,"[6]; K562, read-out: LC50",> 100 µM
same,GI50,[6]; KM12,3.6 µM
same,CC50,"[6]; KM12, read-out: LC50",> 100 µM
same,GI50,[6]; LOX IMVI,1.7 µM
same,CC50,"[6]; LOX IMVI, read-out: LC50",5.91 µM
same,GI50,[6]; M14,3.63 µM
same,CC50,"[6]; M14, read-out: LC50",> 100 µM
same,GI50,[6]; MCF7,2.68 µM
same,CC50,"[6]; MCF7, read-out: LC50",> 100 µM
same,GI50,[6]; MDA-MB-231,3.4 µM
same,CC50,"[6]; MDA-MB-231, read-out: LC50",> 100 µM
same,GI50,[6]; MDA-MB-435,3.01 µM
same,CC50,"[6]; MDA-MB-435, read-out: LC50",> 100 µM
same,GI50,[6]; MDA-MB-468,2.99 µM
same,CC50,"[6]; MDA-MB-468, read-out: LC50",> 100 µM
same,GI50,[6]; MOLT-4,2.58 µM
same,CC50,"[6]; MOLT-4, read-out: LC50",> 100 µM
same,GI50,[6]; Malme-3M,2.18 µM
same,CC50,"[6]; Malme-3M, read-out: LC50",> 100 µM
same,GI50,[6]; NCI-H23,5.03 µM
same,GI50,[6]; NCI-H226,2.42 µM
same,CC50,"[6]; NCI-H226, read-out: LC50",> 100 µM
same,GI50,[6]; NCI-H322M,96.9 µM
same,CC50,"[6]; NCI-H322M, read-out: LC50",> 100 µM
same,GI50,[6]; NCI-H460,4.47 µM
same,CC50,"[6]; NCI-H460, read-out: LC50",> 100 µM
same,GI50,[6]; NCI-H522,1.78 µM
same,CC50,"[6]; NCI-H522, read-out: LC50",7.45 µM
same,GI50,[6]; NCI/ADR-RES,2.31 µM
same,CC50,"[6]; NCI/ADR-RES, read-out: LC50",> 100 µM
same,GI50,[6]; OVCAR-3,2.08 µM
same,CC50,"[6]; OVCAR-3, read-out: LC50",> 100 µM
same,GI50,[6]; OVCAR-4,3.93 µM
same,CC50,"[6]; OVCAR-4, read-out: LC50",> 100 µM
same,GI50,[6]; OVCAR-5,4.44 µM
same,CC50,"[6]; OVCAR-5, read-out: LC50",> 100 µM
same,GI50,[6]; OVCAR-8,2.77 µM
same,CC50,"[6]; OVCAR-8, read-out: LC50",> 100 µM
same,GI50,[6]; RXF 393,1.73 µM
same,CC50,"[6]; RXF 393, read-out: LC50",30.9 µM
same,GI50,[6]; SF-268,4.62 µM
same,CC50,"[6]; SF-268, read-out: LC50",> 100 µM
same,GI50,[6]; SK-MEL-2,17 µM
same,CC50,"[6]; SK-MEL-2, read-out: LC50",> 100 µM
same,GI50,[6]; SK-MEL-5,4.57 µM
same,CC50,"[6]; SK-MEL-5, read-out: LC50",> 100 µM
same,GI50,[6]; SK-MEL-28,3.37 µM
same,CC50,"[6]; SK-MEL-28, read-out: LC50",> 100 µM
same,GI50,[6]; SK-OV-3,> 100 µM
same,CC50,"[6]; SK-OV-3, read-out: LC50",> 100 µM
same,GI50,[6]; SN12C,2.89 µM
same,CC50,"[6]; SN12C, read-out: LC50",> 100 µM
same,GI50,[6]; SNB-19,97.5 µM
same,CC50,"[6]; SNB-19, read-out: LC50",> 100 µM
same,GI50,[6]; SNB-75,2.67 µM
same,CC50,"[6]; SNB-75, read-out: LC50",> 100 µM
same,GI50,[6]; SW-620,2.3 µM
same,CC50,"[6]; SW-620, read-out: LC50",> 100 µM
same,GI50,[6]; T47D,3.05 µM
same,CC50,"[6]; T47D, read-out: LC50",> 100 µM
same,GI50,[6]; TK-10,4.15 µM
same,CC50,"[6]; TK-10, read-out: LC50",> 100 µM
same,GI50,[6]; U-251,4.97 µM
same,CC50,"[6]; U-251, read-out: LC50",> 100 µM
same,GI50,[6]; UACC-62,2.67 µM
same,CC50,"[6]; UACC-62, read-out: LC50",> 100 µM
same,GI50,[6]; UACC-257,4.92 µM
same,CC50,"[6]; UACC-257, read-out: LC50",> 100 µM
same,GI50,[6]; UO-31,4.03 µM
same,CC50,"[6]; UO-31, read-out: LC50",> 100 µM
